Patent publication US11576987B2, “Compositions and methods of treating melanoma” (UNIVERSITY OF IOWA RESEARCH FOUNDATION, priority 2016, dated 2023)
Where a name gives a salt, the structure may show the parent alone.

Assays:
[1] = PBA co-administration: kidney and tumor uptake of [203Pb]DOTA-MCR1; format: in vivo, mice; conditions: PBA 120 mg/kg co-administered i.v. or i.p., 2 h p.i.
Procedure: FIGS. 14A-14B. […] Results are ID %/g tissue±SD; **P<0.01; ****P<0.0001. (B Right) Pre-administered of PBA (i.p. 60 mg/kg) and BRAFi (vemurafenib; p.o. 5 mg/kg) 3 h prior to tail vein injection of 13 MBq [^203Pb]DOTA-MCR1 in human (A2058) melanoma-bearing athymic nu/nu mice (SPECT image 1 h p.i.); (B Left) An identical animal was administered an identical dose of [^203Pb]DOTA-MCR1 without PBA/BRAFi (saline). Images were identically processed and analyzed using Inveon Workplace software (identical contrast, intensity, etc.).
PBA relieves ER-stress through nonspecific binding to misfolded proteins in the ER. Thus, it was hypothesized that co-injection could inhibit peptide uptake in kidneys in the same fashion as amino acid co-infusions used clinically. This is reasonable because the megalin-cubulin system for reuptake and recirculation of nutrients in the proximal and distal tubules involves nonspecific binding and endocytosis of proteins, amino acids, and nutrients. results support the hypothesis that co-injection of PBA can serve to reduce kidney accumulation of radiopeptides in the kidneys (FIGS. 14A-B).

[2] = tested on: BRAFi-resistant A375VR cells; test: Clonogenic survival of BRAFi-resistant melanoma cells; format: cell-based, human; conditions: in combination with 5 μM vemurafenib, up to 6 days, PBA as low as 500 μM
Procedure: FIGS. 13A-13B. PBA treatment promotes cell death of BRAFi-resistant metastatic melanoma and upregulates MCR1 expression in a time dpe. (A) BRAFi-resistant A375VR cells were incubated with 5 μM vemurafenib in combination with ER-stress-relieving drug 4-PBA for up to 6 days. […] (B) Flow cytometry analysis of MCR1 expression in A2058 and A375 malignant melanoma cells. Cells were treated with 3 mmole 4-PBA for 4 h and 24 h (n=3). The treated and untreated (control) cells were stained with anti-MC1R-phycoerythrin (PE) monoclonal antibody conjugate. Fluorescence intensity was corrected by auto-fluorescence of cells without staining and data were expressed as relative fluorescence intensity (IF) (vs. control)±SD.
Accumulation of misfolded-proteins causes upregulation and detachment of ER resident protein GRP78 from ER sensors proteins—activating the unfolded protein response (UPR) and downstream signaling pathways (including autophagy). […] Thus, the potential for a pharmacological treatment that would sensitize BRAFi-resistant cells to BRAFi by reducing ER-stress was considered. BRAFi-resistant A375VR melanoma cells were incubated with BRAFi vemurafenib alone and in combination with ER-stress relieving PBA.

MCR1 expression = test: Pharmacological enhancement of MCR1 expression in human melanoma cells by drug incubation; format: cell-based; conditions: human melanoma cells, incubation with drug
From the text: Melanoma if detected early can be cured by surgery, but metastatic melanoma is lethal. New therapies (e.g., immunotherapy; BRAF inhibition, BRAFi) and combinations extend life, but low response rates, acquired drug resistance, and serious side effects are major challenges to improving outcomes for disseminated disease (5 y survival 17%). Peptide-based radionuclide therapy targeted to the melanocortin-receptor type 1 (MCR1-RT) has long been considered a promising alternative; and MCR1-RT has achieved complete responses in mouse models (B16). However, MCR1 expression is heterogeneous/low in human melanoma, and as a result, no previous MCR1-RT study has employed successfully human melanoma cell xenografts. […] This introduces innovative Pb-specific chelator combined with a “click-cyclized” peptide (PSC-C-MCR1) to improve tumor:kidney ratio of radionuclide uptake 7-fold. An effective therapy for metastatic melanoma is developed that combines MCR1-RT with pharmacological agents (PBA; BRAFi/MEKi; HDACi) that enhance MCR1 expression.
Melanoma is the fastest growing cancer incidence in the United States. Surgery combined with radiation can be curative at early stages. However, metastatic melanoma is almost uniformly fatal (5-yr survival 17%). Recent breakthrough targeted MAPKi therapies (e.g., BRAFi) and immunotherapies (e.g., PD-1 inhibitors) have improved outcomes, but low response rates, acquired drug resistance, and adverse side effects limit quality of life for metastatic melanoma patients. For example, approval of immune-checkpoint inhibitor ipilimumab was based on an improvement in overall survival of only 3.7 months (overall response <15%). Combination immunotherapies have improved response (up to 61%), but grade 3/4 adverse events (up to 55%) often lead to therapy discontinuation (up to 36%). For targeted therapies, BRAF inhibitor vemurafenib was approved based on overall survival at 6 months of 84% vs 64% in the control arm (dacarbazine). Combining BRAFi with MEK inhibitors (MEKi) has led to modest improvements, yet recurrence is virtually inevitable. The mechanisms of acquired drug resistance are complex, and include altered/alternative oncogenic pathways; tumor heterogeneity; and enhanced DNA repair. Melanocortin-receptor type 1 targeted radionuclide therapy (MCR1-RT) has long been considered a promising alternative treatment for melanoma; and MCR1-targeted α-particle therapy (^212Pb) has achieved complete responses in mice bearing mouse (B16) tumors that highly express MCR1. However, these studies have been confined primarily to mouse melanoma (B16) cells because MCR1 expression is heterogeneous/low in human melanoma.
Combination therapies for metastatic melanoma are emerging as common practice (e.g., BRAFi plus MEK; and combination immunotherapies), but melanoma almost invariably develops resistance. MCR1-RT has long been considered a promising alternative, but previous therapy studies have been limited to the use of B16 mouse melanoma cells that highly express the MCR1 protein, because native MCR1 expression in human melanoma is heterogeneous/low.

[3] = cited from earlier work

Structure (SMILES): O=C(O)CCCc1ccccc1 [PBA, 4-phenylbutyric acid, sodium salt]
- kidney uptake of [203Pb]DOTA-MCR1 [1]: significantly blocked kidney uptake
- tumor accumulation of [203Pb]DOTA-MCR1 [1]: did not affect tumor accumulation
- clonogenic cell death [2]: ~90%
- enhancement of MCR1 expression (MCR1 expression): up to 8 fold
- solubility in acetone and diethyl ether [3]: practically insoluble
- solubility in methanol [3]: freely soluble
- solubility in water [3]: soluble in water
